This passage reports inhibition of growth, melting point and pest or weed control results from patent publication US10640497B2, “Microbiocidal oxadiazole derivatives” (SYNGENTA PARTICIPATIONS AG, priority 2015, dated 2020).

In general, inhibition of growth refers to the relative decrease from the control value, in per cent. A lower inhibition of growth goes with a weak effect. As a reminder, the melting point is the temperature, or range, at which the solid turns liquid. One may read the pest or weed control as the degree to which the test organism was suppressed or injured, in per cent. High values mean a strong effect, low ones a weak effect.

Series [1] deals with Glomerella lagenarium (Colletotrichum lagenarium). In words: Fungicidal activity against Glomerella lagenarium (Colletotrichum lagenarium), liquid culture, cucumber, preventative (anthracnose). Format: cell-based. The settings on record: Colletotrichum orbiculare, liquid culture (PDB), growth inhibition measured photometrically 3-4 days after application, compared to untreated control. The method in brief: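 Glomerella lagenarium conidia in potato dextrose broth were exposed in 96-well plates to test compound diluted from DMSO stock with 0.025% Tween20 and incubated at 24 °C. Growth inhibition was read photometrically 3–4 days after application, as percent activity relative to untreated check.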

The test system of series [2] is Puccinia recondita f. sp. tritici. In words: Fungicidal activity against Puccinia recondita f. sp. tritici, wheat, leaf disc curative (brown rust). Particulars: foliar, 144 h, wheat leaf segments, curative (applied 1 day after inoculation), 6-8 days after application, compared to untreated control. Format: in vivo. The method in brief: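 Wheat cv. Kanzler leaf segments on agar, inoculated with brown rust spores and kept dark at 19 °C, 75% rh; formulated compound sprayed 1 day after inoculation (curative). Incubated 19 °C, 75% rh, 12 h light/dark; percent disease control vs untreated scored 6–8 days after application.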

The test system of the next series is Phakopsora pachyrhizi. Briefly: Fungicidal activity against Phakopsora pachyrhizi, soybean, leaf disc preventative (Asian soybean rust). Format: in vivo. The settings on record: foliar, 288 h, 12-14 days after application, compared to untreated control. The method in brief: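 Soybean leaf discs on water agar were sprayed with compound diluted in water, then inoculated one day later with a spore suspension on the lower leaf surface. After 24-36 h dark at 20 °C, 75% rh, discs were held at 20 °C, 12 h light/day. Percent disease control versus untreated assessed 12-14 days post-application.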

Series [3] has as its system Puccinia recondita f. sp. tritici. In words: Fungicidal activity against Puccinia recondita f. sp. tritici, wheat, leaf disc preventative (brown rust). The format is in vivo. Particulars: foliar, wheat leaf segments, preventative (inoculated 1 day after application), 7-9 days after application, compared to untreated control. The method in brief: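 Wheat cv. Kanzler leaf segments on water agar sprayed with compound (DMSO stock diluted in water), then inoculated with spore suspension 1 day later. Incubated at 19 °C, 75% rh, 12 h light/12 h dark; percent disease control versus untreated scored at 7-9 days after application.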

As for `CS(=O)(=O)N1CCN(Cc2ccc(-c3noc(C(F)(F)F)n3)cc2)C(=O)C1` [Compound A-41, 4-methylsulfonyl-1-[[4-[5-(trifluoromethyl)-1,2,4-oxadiazol-3-yl]phenyl]methyl]piperazin-2-one], the melting point was in the range of 155 to 160 °C. The compound also showed an inhibition of growth at 20 ppm in series [1] of at least 80%. The pest or weed control at 200 ppm in series [2] was at least 80%. In addition, the pest or weed control at 200 ppm in the series on Phakopsora pachyrhizi was at least 80%. The pest or weed control at 200 ppm in series [3] is at least 80%.
Take `O=C1CCCC(=O)N1Cc1ccc(-c2noc(C(F)(F)F)n2)cc1` [Compound A-49, 1-[[4-[5-(trifluoromethyl)-1,2,4-oxadiazol-3-yl]phenyl]methyl]piperidine-2,6-dione]: the melting point fell in the range of 104 to 108 °C. The compound also displayed an inhibition of growth at 20 ppm in series [1] of at least 80%. For the same compound, the pest or weed control at 200 ppm in series [2] was at least 80%. The pest or weed control at 200 ppm with Phakopsora pachyrhizi is at least 80%. In series [3], this compound displayed a pest or weed control at 200 ppm of at least 80%.
On to `O=C1CCC(=O)N1Cc1ccc(-c2noc(C(F)(F)F)n2)cc1` [Compound A-51, 1-[[4-[5-(trifluoromethyl)-1,2,4-oxadiazol-3-yl]phenyl]methyl]pyrrolidine-2,5-dione], for which the melting point was 113 to 117 °C. Further, the inhibition of growth at 20 ppm in series [1] is at least 80%. This compound gave a pest or weed control at 200 ppm in series [2] of at least 80%. The pest or weed control at 200 ppm in the series on Phakopsora pachyrhizi is at least 80%. Besides, the pest or weed control at 200 ppm in series [3] was at least 80%.
Regarding `CC1(C)CCCN(Cc2ccc(-c3noc(C(F)(F)F)n3)c(F)c2)C1=O` [Compound A-54, 1-[[3-fluoro-4-[5-(trifluoromethyl)-1,2,4-oxadiazol-3-yl]phenyl]methyl]-3,3-dimethyl-piperidin-2-one], the melting point is 69 to 73 °C. The inhibition of growth at 20 ppm in series [1] was at least 80%. The pest or weed control at 200 ppm in series [2] is at least 80%. The pest or weed control at 200 ppm in the series with Phakopsora pachyrhizi is at least 80%. In series [3], this compound came in with a pest or weed control at 200 ppm of at least 80%.
On to `CC(=O)N1CC(=O)N(Cc2ccc(-c3noc(C(F)(F)F)n3)cc2)C(=O)C1` [Compound A-55, 4-acetyl-1-[[4-[5-(trifluoromethyl)-1,2,4-oxadiazol-3-yl]phenyl]methyl]piperazine-2,6-dione], for which the melting point is 111 to 114 °C. The compound further showed an inhibition of growth at 20 ppm in series [1] of at least 80%. The pest or weed control at 200 ppm in series [2] is at least 80%. The compound further returned a pest or weed control at 200 ppm in the series with Phakopsora pachyrhizi of at least 80%. The pest or weed control at 200 ppm in series [3] was at least 80%.
The compound `CN(C)C(=O)N1CC(=O)N(Cc2ccc(-c3noc(C(F)(F)F)n3)cc2)C(=O)C1` [Compound A-56, N,N-dimethyl-3,5-dioxo-4-[[4-[5-(trifluoromethyl)-1,2,4-oxadiazol-3-yl]phenyl]methyl]piperazine-1-carboxamide] registered a melting point of 138 to 141 °C. For the same compound, in series [1], the inhibition of growth at 20 ppm was at least 80%. For the same compound, the pest or weed control at 200 ppm in series [2] is at least 80%. In the series with Phakopsora pachyrhizi, the pest or weed control at 200 ppm is at least 80%. The pest or weed control at 200 ppm in series [3] is at least 80%.
`O=C1CCON1Cc1ccc(-c2noc(C(F)(F)F)n2)c(F)c1` [Compound A-68, 2-[[3-fluoro-4-[5-(trifluoromethyl)-1,2,4-oxadiazol-3-yl]phenyl]methyl]isoxazolidin-3-one] yielded a melting point of 86 to 89 °C. For the same compound, in series [1], the inhibition of growth at 20 ppm is at least 80%. The same compound yielded a pest or weed control at 200 ppm in series [2] of at least 80%. In the series on Phakopsora pachyrhizi, the pest or weed control at 200 ppm was at least 80%. The pest or weed control at 200 ppm in series [3] was at least 80%.
On to `O=S1(=O)CCCN1Cc1ccc(-c2noc(C(F)(F)F)n2)cc1` [Compound B-1, 2-[[4-[5-(trifluoromethyl)-1,2,4-oxadiazol-3-yl]phenyl]methyl]-1,2-thiazolidine 1,1-dioxide], for which the melting point fell in the range of 69 to 73 °C. The inhibition of growth at 20 ppm in series [1] is at least 80%. The pest or weed control at 200 ppm in series [2] is at least 80%. The compound also returned a pest or weed control at 200 ppm with Phakopsora pachyrhizi of at least 80%. For the same compound, the pest or weed control at 200 ppm in series [3] was at least 80%.
Turning to `O=C1CCCN1c1ccc(-c2noc(C(F)(F)F)n2)cc1` [Compound C-1, 1-[4-[5-(trifluoromethyl)-1,2,4-oxadiazol-3-yl]phenyl]pyrrolidin-2-one], the melting point was 151 to 153 °C. In series [1], this compound registered an inhibition of growth at 20 ppm of at least 80%. This compound also yielded a pest or weed control at 200 ppm in series [2] of at least 80%. In the series with Phakopsora pachyrhizi, this compound had a pest or weed control at 200 ppm of at least 80%. In series [3], this compound registered a pest or weed control at 200 ppm of at least 80%.
Take `O=C1CCON1c1ccc(-c2noc(C(F)(F)F)n2)cc1` [Compound C-2, 2-[4-[5-(trifluoromethyl)-1,2,4-oxadiazol-3-yl]phenyl]isoxazolidin-3-one]: the melting point lay within 74 to 77 °C. In addition, the inhibition of growth at 20 ppm in series [1] is at least 80%. The pest or weed control at 200 ppm in series [2] is at least 80%. Besides, the pest or weed control at 200 ppm in the series on Phakopsora pachyrhizi is at least 80%. In series [3], this compound displayed a pest or weed control at 200 ppm of at least 80%.
